Here are results for 12 compounds from patent publication US12054497B2, “Substituted heterocyclic fused cyclic compound, preparation method therefor and pharmaceutical use thereof” (GENFLEET THERAPEUTICS (SHANGHAI) INC., priority 2019, dated 2024).

The subject of test [1] is NCI-H358 cells with Kras G12C mutation. Kind of test: Cell proliferation inhibition experiment, 3D spheroid, CellTiter-Glo (Test Example 1). It counts as cell-based, human. The following applies: 5 days. The method in brief: (§1)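 NCI-H358 (800 cells/well) and A549 (400 cells/well) grown overnight as 3D spheroids in 2% FBS medium, then exposed to compound dilution series (3.16-fold, 0.1% DMSO) for 5 days. CellTiter-Glo luminescence read; inhibition relative to DMSO and blank, IC50 by four-parameter fit.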

Test [2] concerns A549 cells with Kras G12S mutation. The test is described as above. The class given is cell-based, human. The following applies: 5 days. The method in brief:
as §1

The target of another test is KRas G12C (Homo sapiens (Human), UniProt P01116, G12C). Nature of the test: Nucleotide exchange assay (NEA)-HTRF, SOS1 catalyzed displacement of GDP by GTP (Test Example 4). It counts as biochemical. Here is the method:
The effects of compounds on SOS1 catalyzed displacement of GDP by GTP on KRas proteins was examined by homogeneous time-resolved fluorescence (HTRF). 30 μM 6×his labeled KRas G12C recombinant protein and 80 μM fluorochrome DY647 labeled GDP were co-incubated in a labeling buffer (1 mM DTT, 7.5 mM EDTA, 25 mM Tris-HCl, 45 mM NaCl) at 20° C. away from light for 2 hours. Protein quantification was performed after purification on the NAP-5 column to determine the concentration of KRas G12C-GDP.
1000× stock solutions of compounds at a concentration gradient of 3.16 were prepared by using DMSO, and diluted 250 times by a reaction buffer (40 mM N-2-hydroxyethylpiperazine-N-2-ethane sulfonic acid (HEPES), 10 mM MgCl2, 1 mM DTT, 0.002% Triton X-100) into 4× stock solutions of compounds. KRas G12C-GDP/Tb working solution (40 nM KRas G12C-GDP, 1×anti-his Tb) and SOS1/GTP working solution (0.2 μM SOS1, 200 μM GTP) were prepared by using the reaction buffer.
5 μl of 4×stock solution of a compound and 10 μl of KRas G12C-GDP/T working solution were added to each well of 96-well plate with white unclear bottom, and 5 μl of reaction buffer was added to the well of control group in stead of the 4×stock solution of a compound. After incubation at 20° C. away from light for 15 minutes, 5 μl of SOS1/GTP working solution was added and incubated at 20° C. away from light for 2 hours, and then a value of fluorescence intensity was read (excitation wavelength: 320 nm, and emission wavelengths: 615 nm and 665 nm). Besides, group TO was established with 10 μl of the reaction buffer and 10 μl of the KRas G12C-GDP/Tb working solution, and the value of fluorescence intensity was directly read. A relative light unit (RLU) was calculated by the following equation: RLU=(665 nm signal/615 nm signal)×10^4; and the inhibition rate (IR) of the compound was calculated by the following equation: IR (%)=(RLUcompound−RLUcontrol)/(RLUT0−RLUcontrol)×100%. The value of IC50 was calculated by fitting a gradiently diluted concentration of the compound and the corresponding cell proliferation inhibition rate using a four-parameter method.

Test [3] deals with phosphorylated ERK in MIA PaCa2 cells with Kras G12C mutation. Nature of the test: p-ERK HTRF assay for cells (Test Example 2). Particulars: MIA PaCa2 cells, 2 hours with compound, read-out: p-ERK IC50. The class given is cell-based, human. The method in brief:
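MIA PaCa2 cells (2.5E4/well, seeded overnight) treated 2 h with compound in a 3.16-fold series at 0.1% DMSO. Cells lysed 30 min; p-ERK read by HTRF after 4 h antibody incubation. Inhibition relative to DMSO and blank; IC50 by four-parameter fit.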

The test system of test [4] is subcutaneous xenograft tumor model of MIA PaCa-2. Nature of the test: In vivo pharmacodynamic experiment, tumor growth inhibition (Test Example 5). Also on record: species or system BALB/c nude mice. Particulars: p.o., QD; for TGI: day 14. As to the method: Experimental objective: to evaluate the in vivo pharmaceutical effects of tested compounds on the subcutaneous xenograft tumor model of MIA PaCa-2.
Experimental operation: 6 to 8 weeks old female BALB/c nude mice each having the body weight of 18-20 g were chosen. MIA PaCa-2 cells were cultured in DMEM containing 10% FBS, 2.5% HS and 1% penicillin-streptomycin at 37° C. in an incubator with 5% CO2. Cells were collected. The MIA PaCa-2 cells were subcutaneously inoculated to the animals at their backs on the right, 2.0×10^6 cells (0.1 mL) for each animal. When tumor grew to 190-311 mm^3, mice with tumor having a suitable size were chosen and treated in groups, with administration dosages shown in Table 5 below. The animals were weighed on an electronic balance each day. The tumor volume was investigated by using a vernier caliper twice a week. The tumor volume was calculated by the following equation: V=0.5 a×b^2, a and b representing the long diameter and the short diameter of the tumor, respectively. The tumor volume was used to calculate a tumor growth inhibition rate (TGI), and the TGI shown in the form of a percentage was used to indicate the antineoplastic activity of a compound. The TGI was calculated by the following equation: TGI (%)=[1−avTi−0/avCi−0)]×100, with avTi−0 representing the average tumor volume of the group administrated with the compound on a specific day minus the average tumor volume of this group on the day of grouping, and avCi−0 representing the average tumor volume of the solvent control group on a specific day minus the average tumor volume of the solvent control group on the day of grouping. The tumor volume was shown in the form of an average value±standard error of mean (SEM).

The test system of test [5] is MIA PaCa-2 cells with Kras G12C mutation. Kind of test: Cell proliferation inhibition experiment, 3D spheroid, CellTiter-Glo (Test Example 3). The class given is cell-based, human. Particulars: Homo sapiens, MIA PaCa-2, 120 h, 5 days, read-out: MIA-PaCa2 IC50. As to the method:
MIA PaCa-2 was a human pancreatic carcinoma cell line with Kras G12C mutation, which was cultured in a DMEM with 10% FBS and 2.5% Horse serum. A549 was a human lung adenocarcinoma cell line with Kras G12S mutation, which was cultured in an F-12K medium with 10% FBS. Cells in logarithmic growth phase were detached with trypsin and EDTA, collected and counted, and 200 MIA PaCa-2 cells and 400 A549 cells were seeded to 384-well spheroid plates, respectively, and cultured overnight to establish 3D cell models. 1000× stock solutions of compounds at a concentration gradient of 3.16 were prepared by using DMSO, and diluted 100 times by the medium into 10× stock solutions of compounds. On the day after cell seeding, 10× stock solution of a compound was added to each well of cell culture plate, with a final concentration being 1× and a DMSO content of 0.1%. DMSO was used as the control, and the medium was used as the blank. After 5 days of cell culture with the compound, 30 μl of CellTiter-Glo working solution was added to each well, and mixed uniformly and incubation for 30 minutes. After standing at room temperature for 30 minutes, 40 μl of mixed solution was transferred to a 384-well plate with white unclear bottom. A value of luminescence intensity was then read, and a cell proliferation inhibition rate (IR) (%)=(RLU control−RLU compound)/(RLU control−RLU blank)×100%. The value of IC50 was calculated by fitting a gradiently diluted concentration of the compound and the corresponding cell proliferation inhibition rate using an XLFit four-parameter method.

Like-named read-outs stand apart in the source and are kept apart here.

Sequence of KRas G12C (P01116-2 other isoform, or with tags, fused parts or gaps G12C): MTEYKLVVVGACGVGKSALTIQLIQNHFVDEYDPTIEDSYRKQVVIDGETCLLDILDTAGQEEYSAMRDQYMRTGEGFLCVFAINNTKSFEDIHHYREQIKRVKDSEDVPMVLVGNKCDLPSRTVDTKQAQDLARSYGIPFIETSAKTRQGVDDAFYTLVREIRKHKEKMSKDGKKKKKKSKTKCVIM

Take `C=CC(=O)N1CCN2c3c(c(=O)n(-c4c(C)ccnc4C(C)C)c4nc(-c5c(O)cccc5F)c(Cl)cc34)NC(=O)[C@H]2C1` (single isomer, unassigned) [Compound Z24-1]: the IC50 in test [1] was 0.028 µM; in test [2], over 30 µM; at KRas G12C it was 0.291 µM; in test [3], 0.536 µM.
For `C=CC(=O)N1CCN2c3c(c(=O)n(-c4c(C)ccnc4C(C)C)c4nc(-c5c(O)cccc5F)c(Cl)cc34)N(C)C(=O)[C@H]2C1` (single isomer, unassigned) [Compound Z25-1], the IC50 in test [1] is 0.05 µM; in test [2] (Homo sapiens, A549, 120 h) it was over 30 µM; on KRas G12C it was 0.951 µM.
Take `C=CC(=O)N1CCN2c3c(c(=O)n(-c4c(C(C)C)ncnc4C(C)C)c4c(F)c(-c5c(O)cccc5F)c(Cl)cc34)NC(=O)[C@H]2C1` (single isomer, unassigned) [Compound Z37-2]: the values for the IC50 (in test [1]; in test [2]; on KRas G12C) were 0.165 µM, 3.32 µM and 1.9 µM, respectively.
As to `[2H]C([2H])([2H])N1C(=O)[C@H]2CN(C(=O)C=C)CCN2c2c1c(=O)n(-c1c(C(C)C)ncnc1C(C)C)c1c(F)c(-c3c(O)cccc3F)c(Cl)cc21` (single isomer, unassigned) [Compound Z39-2], the values for the IC50 (in test [1]; in test [2]; at KRas G12C) were 0.316 µM, 7.78 µM and 2.25 µM, respectively.
The matching figures for `C=CC(=O)N1CCN2c3c(c(=O)n(-c4c(C)ncnc4C(C)C)c4nc(-c5c(O)cccc5F)c(F)cc34)N(C)C(=O)[C@H]2C1` (single isomer, unassigned) [Compound Z21-2]: 0.407 µM, over 30 µM and 3.94 µM.
Regarding `C=CC(=O)N1C[C@@H]2C(=O)N(C)c3c(c4cc(Cl)c(-c5c(O)cccc5F)nc4n(-c4c(C)ccnc4C(C)C)c3=O)N2C[C@H]1C` (single isomer, unassigned) [Compound Z27-1], the half-maximal inhibitory concentration (IC50) in test [1] came to 0.012 µM; in test [2] (Homo sapiens, A549, 120 h), 12.7 µM; on KRas G12C, 0.198 µM; in test [3], 0.157 µM.
The compound `C=CC(=O)N1CCN2c3c(c(=O)n(-c4c(C)ccnc4C(C)C)c4nc(-c5c(O)cccc5F)c(F)cc34)OC[C@H]2C1` (atropisomer, axis not shown) [Compound Z1-2] displayed an IC50 at KRas G12C of 1.43 µM.
For the compound `C=CC(=O)N1CCN2c3c(c(=O)n(-c4c(C)ccnc4C(C)C)c4nc(-c5c(O)cccc5F)c(F)cc34)N(C)C(=O)[C@H]2C1` (single isomer, unassigned) [Compound Z9-1], the half-inhibitory concentration (IC50) in test [1] is 0.218 µM; in test [2] (Homo sapiens, A549, 120 h), over 10 µM; on KRas G12C it was 2.57 µM.
On to `C=CC(=O)N1C[C@@H]2C(=O)N(C)c3c(c4cc(Cl)c(-c5c(O)cccc5F)c(F)c4n(-c4c(C(C)C)ncnc4C(C)C)c3=O)N2C[C@H]1C` (single isomer, unassigned) [Compound Z50-2], for which the half-maximal inhibitory concentration (IC50) in test [1] came to 0.32 µM; in test [2], 3.87 µM; on KRas G12C it was 1.45 µM; in test [3] it was 0.316 µM.
As for `C=CC(=O)N1C[C@@H]2C(=O)N(C)c3c(c4cc(Cl)c(-c5c(O)cccc5F)nc4n(-c4c(C(C)C)ncnc4C(C)C)c3=O)N2C[C@H]1C` [Compound Z23, (2R,4aR)-3-acryloyl-11-chloro-8-(4,6-diisopropylpyrimidin-5-yl)-10-(2-fluoro-6-hydroxyphenyl)-2,6-dimethyl-2,3,4,4a,6,8-hexahydro-1H-pyrazino[1′,2′:4,5]pyrazino[2,3-c][1,8]naphthyridin-5,7-dione], the “Tumor Volume on Day 14 after Administration” value in test [4] (1 mg/kg) turned out to be 194.65 mm^3; in test [4] (3 mg/kg), 59.52 mm^3; in test [4] (10 mg/kg), 47.32 mm^3. The TGI in test [4] (1 mg/kg) is 113.2%; in test [4] (3 mg/kg), 143.5%; in test [4] (10 mg/kg), 149.2%. Further, the IC50 came to 0.002 µM in test [1] (Homo sapiens, NCI-H358, 120 h); 10.5 µM in test [2] (Homo sapiens, A549, 120 h); 0.017 µM in test [3] (Homo sapiens, MIA PaCa-2, 2 h); 0.002 µM in test [5].
With `C=CC(=O)N1C[C@@H]2C(=O)N(C)c3c(c4cc(F)c(-c5c(O)cccc5F)nc4n(-c4c(C#N)cccc4C(C)C)c3=O)N2C[C@H]1C` (atropisomer, axis not shown) [Compound Z38-2, 2-((2R,4aR)-3-acryloyl-11-fluoro-10-(2-fluoro-6-hydroxyphenyl)-2,6-dimethyl-5,7-dioxo-2,3,4,4a,5,6-hexahydro-1H-pyrazino[1′,2′:4,5]pyrazino[2,3-c][1,8]naphthyridin-8(7H)-yl)-3-isopropylbenzonitrile], the IC50 is 0.513 µM in test [1], over 30 µM in test [2] and 2.15 µM on KRas G12C.
The matching figures for `[2H]C([2H])([2H])N1C(=O)[C@H]2CN(C(=O)C=C)CCN2c2c1c(=O)n(-c1c(C)ccnc1C(C)C)c1nc(-c3c(O)cccc3F)c(Cl)cc21` (single isomer, unassigned) [Compound Z26-1]: 0.042 µM, over 30 µM and 0.868 µM.
